Experimental data: PMC9578445, “Association of respiratory failure with inhibition of NaV1.6 in the phrenic nerve” (Channels, 2022)
Like-named read-outs stand apart in the source and are kept apart here.

Assays:
[1] = tested on: rat diaphragm with the phrenic nerve attached; assay: Rat hemisected diaphragm (HMD) assay, ex vivo; conditions: for inhibition in rat HMD assay: at both 10 and 30 μM; for IC50: relative to 3 μM d-Tubocurarine relaxation = 100%
Description: Wistar derived male or female rats weighing 450 ± 50 g were euthanized by CO2 overexposure. The diaphragm with the phrenic nerve attached was removed and placed into a tissue recording chamber containing Krebs solution pH 7.4; (composition in g/L: NaCl 6.89, KCl 0.35, CaCl2 0.277, KH2PO4 0.163, MgSO4 · 7H2O 0.296, NaHCO3 2.1 and glucose 1.8). A piece of cotton was attached to the top of the phrenic nerve over the jaw electrodes. A second piece of cotton was attached to the tip of the tendinous tissue at the apex of the diaphragm preparation for attachment to an isometric transducer under 1 g tension. The rib of the diaphragm preparation was secured to the bottom of the jaw electrodes. […] The recording chamber was placed into a water bath kept at a temperature of 32°C by means of a suitable thermoregulator consisting of a thermostat and heating elements in addition to a water circulator.
The isometric transducer was connected to an amplifier and the tissue response was recorded on a two-pen recorder set at 1 volt. Field stimulation [S48 Stimulator (GRASS) set at 0.2 Hz (12 pulses per minute), 0.5 ms pulse duration at 70% of maximum voltage (about 3 to 5 volts)] delivered to two circle platinum electrodes (0.2 cm in diameter) was applied for transmural tissue stimulation. Each tissue preparation was washed three times in Krebs solution every 15 minutes for a 60 minute equilibration period and permitted to develop contractions. D-Tubocurarine (300 µM dissolved in 0.1 mL distilled water for a final 3 µM bath concentration) was added to establish an isometrically recorded control relaxation response ranging from one to two centimeters and corresponding to 60–70% of maximal relaxation. […] The tissue was then washed periodically until the contraction returns to the baseline value.
Sixty minutes later, the test compound was added (e.g. 30 mM in 0.01 mL vehicle of 100% DMSO, for final concentration of 30 µM test compound and 0.1% DMSO). A test compound recorded relaxation response of 50% or more (≥50%) within 5 minutes, relative to the 3 µM d-Tubocurarine control response, indicates neuromuscular blocking activity.

[2] = tested on: anesthetized male CD rats; assay: Rat Cardiovascular/Respiratory (CV/R) assay; format: in vivo; design: ∆ QRS Interval: unit not given here
Procedure: Male CD Rats were anesthetized with ketamine:xylazine (85 mg/kg:5 mg/kg, im, to effect). The left femoral artery and vein were cannulated for the measurement of blood pressure and the administration of test agent, respectively. The right femoral vein was cannulated for maintenance anesthetic infusion (ketamine:xylazine ~35 mg/kg/hr:1.5 mg/kg/hr, iv, to effect). Needle electrodes were placed subcutaneously at the right axillary and left inguinal areas to record lead II ECGs. When ECG intervals were required to determine effect on cardiac conduction a pacing/recording electrode catheter was advanced through the right jugular vein to pace the heart. ECG intervals were then measured at a fixed cardiac rate of 400 beats/minute to remove any variability of intrinsic heart rate on these parameters.
To determine the test agent-dependent effect on respiratory rate, a tracheotomy was also performed using a short length of polyethylene tubing containing a thermistor (AD Instruments). The change in temperature detected by the thermistor was used to calculate respiratory rate.
(§1) For in vivo CVR and phrenic nerve activity studies, all raw signals were amplified via general purposed biological amplifier (filter settings DC – 3-5 KhZ) then digitized, calibrated and collected at a minimum of 500 Hz (1000 Hz for ECG and 2000 Hz for cardiac electrograms, and 10 KHz for phrenic nerve activity) using Notocord-HEM data acquisition and analysis software. The raw signal was filtered following acquisition with a bandpass filter set to 200–800 Hz). Vehicle (100% dimethylformamdide, DMF) or compound formulated in the vehicle was administered as a 30-minute IV infusion at 0.0167 μL/g body weight/min. Doses were selected to achieve unbound plasma concentrations in range of measured Nav1.6 IC50 values when infused at 0.0167uL/g body weight/min based on measured rat clearance, plasma protein binding and Nav1.6 IC50. Exposure in rats was determined in separate pharmacokinetics experiments where compounds were administered via IV dosing.

[3] = Plasma exposure in phrenic nerve activity assay; format: in vivo; conditions: rat; for concentration at 30 min / concentration at 15 min: CD, plasma, intravenous
Description: as §1

[4] = Permeability (Papp, passive diffusion); format: in vitro ADME
[5] = rat CV/R assay, IV infusion, doses tested
[6] = rat, IV infusion, 1 mg/kg, 15 min
[7] = rat, IV infusion, 1 mg/kg, 30 min
[8] = rat, IV infusion, 7 mg/kg, 15 min
[9] = rat, IV infusion, 7 mg/kg, 30 min
[10] = rat, IV infusion, 14 mg/kg, 15 min
[11] = rat, IV infusion, 14 mg/kg, 30 min
[12] = rat, IV infusion, 30 mg/kg, 15 min
[13] = rat, IV infusion, 30 mg/kg, 30 min
[14] = 30 mg/kg, read-out: Total [plasma]
[15] = 30 mg/kg, read-out: Unbound [plasma]
[16] = rat, IV infusion, 60 mg/kg, 15 min
[17] = 60 mg/kg, read-out: Total [plasma]
[18] = 60 mg/kg, read-out: Unbound [plasma]
[19] = rat, IV infusion, 10 mg/kg, 15 min
[20] = rat, IV infusion, 10 mg/kg, 30 min

SMILES: COc1ccc(CCC(c2cccc3c2CNCC3)n2c(=O)oc3cc(S(=O)(=O)Nc4ncns4)c(F)cc32)cc1 (centres unmarked) [SSCI-6]
- Ex vivo HMD inhibition ([1]; at 10 (μM), relative to 3 μM d-Tubocurarine = 100%): 130% at 10
- inhibition in rat HMD assay [1]: supramaximal inhibition
- mortality [2, 5]: mortality
- ∆ respiratory rate ([2]; rat, IV infusion, 1 mg/kg, 20–23 min): −100%
- ∆ Heart Rate [2, 6]: −0.1 ± 0.4 bpm
- ∆ Mean Arterial Pressure [2, 6]: 8.2 ± 7.9 mmHg
- ∆ QRS Interval [2, 6]: 1.0 ± 0.8
- ∆ respiratory rate [2, 6]: −18.3 ± 9.3%
- ∆ Heart Rate [2, 7]: 1.7 bpm
- ∆ Mean Arterial Pressure [2, 7]: 7.5 mmHg
- ∆ QRS Interval [2, 7]: 1.7
- ∆ respiratory rate [2, 7]: −7.8%

SMILES: O=S(=O)(Nc1nccs1)c1cc(Cl)c(NCCCCNC[C@H]2CCCN2)cc1F [SSCI-1]
- inhibition of diaphragm contraction / respiratory effect in HMD assay [1]: does not exhibit respiratory effect
- inhibition at 30 µM ([1]; Rattus norvegicus, highest concentration tested of 30 μM): < 50%
- IC50 ([1]; Rattus norvegicus): > 30 µM
- inhibition in rat HMD assay [1]: little effect
- mortality [2, 5]: No mortality
- effects on cardiovascular and respiratory parameters ([2]; rat CV/R assay, at unbound plasma exposure 16.9 μM): minimal effects
- ∆ Heart Rate [2, 8]: 0.5 ± 2.2 bpm
- ∆ Mean Arterial Pressure [2, 8]: 4.1 ± 0.3 mmHg
- ∆ QRS Interval [2, 8]: 1.4 ± 0.6
- ∆ respiratory rate [2, 8]: 0.8 ± 1.8%
- ∆ Heart Rate [2, 9]: −1.8 ± 3.7 bpm
- ∆ Mean Arterial Pressure [2, 9]: 2.7 ± 0.5 mmHg
- ∆ QRS Interval [2, 9]: 2.5 ± 1.1
- ∆ respiratory rate [2, 9]: 4.5 ± 1.7%
- ∆ Heart Rate [2, 10]: −1.4 ± 1.5 bpm
- ∆ Mean Arterial Pressure [2, 10]: 2.2 ± 1.1 mmHg
- ∆ QRS Interval [2, 10]: 0.4 ± 0.6
- ∆ respiratory rate [2, 10]: 1.9 ± 1.6%
- ∆ Heart Rate [2, 11]: −0.5 ± 2.9 bpm
- ∆ Mean Arterial Pressure [2, 11]: 2.3 ± 2.5 mmHg
- ∆ QRS Interval [2, 11]: 0.4 ± 0.7
- ∆ respiratory rate [2, 11]: 4.0 ± 1.0%
- ∆ Heart Rate [2, 12]: −0.4 ± 1.2 bpm
- ∆ Mean Arterial Pressure [2, 12]: 10.5 ± 1.5 mmHg
- ∆ QRS Interval [2, 12]: 3.7 ± 0.9
- ∆ respiratory rate [2, 12]: −10.1 ± 0.9%
- ∆ Heart Rate [2, 13]: 2.1 ± 1.4 bpm
- ∆ Mean Arterial Pressure [2, 13]: 4.6 ± 1.9 mmHg
- ∆ QRS Interval [2, 13]: 3.9 ± 0.8
- ∆ respiratory rate [2, 13]: −24.8 ± 3.3%
- concentration at 30 min [3, 14]: 236 ± 110 µM
- concentration at 30 min [3, 15]: 15.8 ± 7.37 µM
- Papp [4]: 1.027 10e-6cm/s

SMILES: N#Cc1cc(S(=O)(=O)Nc2cscn2)ccc1Oc1ccc(Cl)cc1-c1ccnn1C1CNC1 [SSCI-5]
- IC50 ([1]; Rattus norvegicus): 11 µM
- mortality [2, 5]: mortality
- ∆ Heart Rate [2, 12]: −1.7 ± 1.3 bpm
- ∆ Mean Arterial Pressure [2, 12]: 14.0 ± 2.1 mmHg
- ∆ QRS Interval [2, 12]: 1.5 ± 1.1
- ∆ respiratory rate [2, 12]: −13.0 ± 3.4%
- ∆ Heart Rate [2, 13]: −3.7 ± 2.8 bpm
- ∆ Mean Arterial Pressure [2, 13]: 13.3 ± 5.5 mmHg
- ∆ QRS Interval [2, 13]: 4.6 ± 3.2
- ∆ respiratory rate [2, 13]: −10.2 ± 2.6%
- ∆ respiratory rate ([2]; rat, IV infusion, 60 mg/kg, 21–23 min): −100%
- ∆ Heart Rate [2, 16]: 1.0 bpm
- ∆ Mean Arterial Pressure [2, 16]: 5.2 mmHg
- ∆ QRS Interval [2, 16]: 5.2
- ∆ respiratory rate [2, 16]: −15.6%
- time to respiratory and cardiac collapse ([2]; rat, infusion without ventilatory support): ≤ 30 min
- concentration at 15 min [3, 17]: 82.7 ± 15.2 µM
- concentration at 15 min [3, 18]: 10.6 ± 1.94 µM
- concentration at 30 min [3, 17]: 86.2 ± 42.1 µM
- concentration at 30 min [3, 18]: 11 ± 5.39 µM
- Papp [4]: 1.351 10e-6cm/s

SMILES: C[C@H](c1cccc2c1CNCC2)n1c(=O)oc2cc(S(=O)(=O)Nc3ncns3)ccc21 [SSCI-3]
- IC50 ([1]; Rattus norvegicus): 2.7 µM
- mortality ([2]; rat CV/R assay, IV, 10 mg/kg): No mortality
- time of mortality ([2]; rat CV/R assay, IV, 30 mg/kg): 20 to 21 min
- ∆ Heart Rate [2, 19]: 3.0 ± 0.7 bpm
- ∆ Mean Arterial Pressure [2, 19]: 12.9 ± 2.1 mmHg
- ∆ respiratory rate [2, 19]: −8.5 ± 1.8%
- ∆ Heart Rate [2, 20]: 5.0 ± 1.9 bpm
- ∆ Mean Arterial Pressure [2, 20]: 6.8 ± 8.7 mmHg
- ∆ QRS Interval [2, 20]: 0.5 ± 0.2
- ∆ respiratory rate [2, 20]: −3.2 ± 1.8%
- ∆ respiratory rate ([2]; rat, IV infusion, 30 mg/kg, 20–21 min): −100%
- ∆ Heart Rate [2, 12]: 5.6 ± 1.7 bpm
- ∆ Mean Arterial Pressure [2, 12]: 13.8 ± 0.7 mmHg
- ∆ QRS Interval [2, 12]: 0.3 + 0.4
- ∆ respiratory rate [2, 12]: −6.2 ± 5.4%
- concentration at 15 min [3, 14]: 32.1 ± 3.4 µM
- concentration at 15 min [3, 15]: 3.78 ± 0.4 µM
- Total [plasma] ([3]; 30 mg/kg, 22–30 min): 43.549 ± 3.116 µM
- Unbound [plasma] ([3]; 30 mg/kg, 22–30 min): 5.138 ± 0.36 µM
- Papp [4]: 1.716 10e-6cm/s
